Broadly, the inhibition is the percentage by which the read-out fell short of the control. By IC50 is commonly meant the midpoint of a concentration-inhibition curve. By Cmax is commonly meant the peak of the concentration-time curve. What is called Tmax is the time from dosing to the highest level.

One series deals with blood. Particulars: contacting blood with the substance; cited from earlier work.
For series [1], the system named is intrinsic pathway of coagulation. The settings on record: in vitro; cited from earlier work.
For series [2] the following is noted: in vivo; cited from earlier work.
The test system of series [3] is LPS-induced disseminated intravascular coagulation. The settings on record: cited from earlier work.
The next series deals with T1, Human FXIa (Homo sapiens, UniProt P03951).
T1 construct: purchased Enzyme Research Laboratories
Put plainly: Determination of the % inhibition for FXIa. It is filed as biochemical. The settings on record: 40 μM test compound, 25° C. The procedure:
Determination of the % Inhibition for FXIa
(§1) FXIa inhibitory activity in vitro was determined using standard published methods (see e.g. Johansen et al., Int. J. Tiss. Reac. 1986, 8, 185; Shori et al., Biochem. Pharmacol., 1992, 43, 1209; Stürzebecher et al., Biol. Chem. Hoppe-Seyler, 1992, 373, 1025). Human FXIa (Enzyme Research Laboratories) was incubated at 25° C. with the fluorogenic substrate Z-Gly-Pro-Arg-AFC and 40 μM of the test compound. Residual enzyme activity (initial rate of reaction) was determined by measuring the change in optical absorbance at 410 nm.

Another series has as its target T2, Human plasma kallikrein (Homo sapiens, UniProt P03952).
T2 construct: purchased Protogen
Put plainly: Determination of the IC50 for plasma kallikrein. Type of series: biochemical. Particulars: 25° C., substrate H-DPro-Phe-Arg-AFC; read-out: IC50 (human PKaI). The procedure: Determination of the IC50 for Plasma Kallikrein
as §1, with “Plasma kallikrein” for “FXIa”, “plasma kallikrein (Protogen)” for “FXIa (Enzyme Research Laboratories)”, “H-DPro-Phe-Arg-AFC” for “Z-Gly-Pro-Arg-AFC”, “various concentrations” for “40 μM”, “nm and the IC50 value for the test compound was determined.” for “nm.”

A short description of series [4]: Pharmacokinetic study, single oral dose in rats. Type of series: in vivo. The settings on record: male, Sprague-Dawley; rat, po 11.3 mg/kg, vehicle 10% DMSO/10% cremophor/80% SWFI, plasma. The procedure: A pharmacokinetic study of N-[(2,6-difluoro-3-methoxyphenyl)methyl]-3-(methoxymethyl)-1-({4-[(2-oxopyridin-1-yl)methyl]phenyl}methyl)pyrazole-4-carboxamide was performed to assess the pharmacokinetics following a single oral dose in male Sprague-Dawley rats. Two rats were given a single po dose of 5 mL/kg of a nominal 2 mg/mL (10 mg/kg) composition of test compound in vehicle. Following dosing, blood samples were collected over a period of 24 hours. Sample times were 5, 15 and 30 minutes then 1, 2, 4, 6, 8 and 12 hours. Following collection, blood samples were centrifuged and the plasma fraction analysed for concentration of test compound by LCMS.

The target in the next series is T3, Human KLK1 (Homo sapiens, UniProt P06870).
T3 construct: purchased Callbiochem
Put plainly: Determination of the IC50 for KLK1. Particulars: 25° C., substrate H-DVaI-Leu-Arg-AFC. It is filed as biochemical. The method, then:
Determination of the IC50 for KLK1
KLK1 inhibitory activity in vitro was determined using standard published methods (see e.g. Johansen et al., Int. J. Tiss. Reac. 1986, 8, 185; Shori et al., Biochem. Pharmacol., 1992, 43, 1209; Stürzebecher et al., Biol. Chem. Hoppe-Seyler, 1992, 373, 1025). Human KLK1 (Callbiochem) was incubated at 25° C. with the fluorogenic substrate H-DVaI-Leu-Arg-AFC and various concentrations of the test compound. Residual enzyme activity (initial rate of reaction) was determined by measuring the change in […] at 410 nm and the IC50 value for the test compound was determined.

T3 sequence (P06870 25-262): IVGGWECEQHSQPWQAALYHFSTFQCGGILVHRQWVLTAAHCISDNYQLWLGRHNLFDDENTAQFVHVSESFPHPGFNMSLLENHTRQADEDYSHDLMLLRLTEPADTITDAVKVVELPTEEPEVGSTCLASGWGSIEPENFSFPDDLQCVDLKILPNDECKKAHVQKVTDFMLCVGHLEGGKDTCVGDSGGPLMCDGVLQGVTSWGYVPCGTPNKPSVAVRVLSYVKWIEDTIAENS
T2 sequence (P03952 391-638 limits assumed): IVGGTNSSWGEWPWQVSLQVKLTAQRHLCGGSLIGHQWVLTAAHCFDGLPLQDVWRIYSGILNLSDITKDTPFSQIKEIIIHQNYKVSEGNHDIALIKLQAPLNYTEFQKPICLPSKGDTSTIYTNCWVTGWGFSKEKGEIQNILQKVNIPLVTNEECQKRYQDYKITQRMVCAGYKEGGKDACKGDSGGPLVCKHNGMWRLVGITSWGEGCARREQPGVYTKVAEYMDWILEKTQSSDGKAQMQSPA
T2 sequence (P03952 20-390 partner limits assumed): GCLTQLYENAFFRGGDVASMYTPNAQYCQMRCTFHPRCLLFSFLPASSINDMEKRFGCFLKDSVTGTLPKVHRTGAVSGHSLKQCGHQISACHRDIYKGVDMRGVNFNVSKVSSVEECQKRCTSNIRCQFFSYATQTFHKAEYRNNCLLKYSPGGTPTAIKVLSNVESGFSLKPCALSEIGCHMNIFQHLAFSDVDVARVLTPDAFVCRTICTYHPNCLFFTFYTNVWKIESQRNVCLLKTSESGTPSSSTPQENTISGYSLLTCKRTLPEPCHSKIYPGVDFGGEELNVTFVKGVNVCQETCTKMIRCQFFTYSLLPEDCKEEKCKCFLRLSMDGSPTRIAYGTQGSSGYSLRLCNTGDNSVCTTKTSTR
T1 sequence (P03951 388-625 limits assumed): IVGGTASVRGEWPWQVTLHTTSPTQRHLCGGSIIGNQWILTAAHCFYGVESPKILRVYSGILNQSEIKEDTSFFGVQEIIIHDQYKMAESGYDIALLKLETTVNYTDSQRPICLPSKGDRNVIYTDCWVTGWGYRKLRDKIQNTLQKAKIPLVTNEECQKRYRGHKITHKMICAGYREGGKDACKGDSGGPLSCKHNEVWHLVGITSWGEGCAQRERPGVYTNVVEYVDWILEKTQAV
T1 sequence (P03951 19-387 partner limits assumed): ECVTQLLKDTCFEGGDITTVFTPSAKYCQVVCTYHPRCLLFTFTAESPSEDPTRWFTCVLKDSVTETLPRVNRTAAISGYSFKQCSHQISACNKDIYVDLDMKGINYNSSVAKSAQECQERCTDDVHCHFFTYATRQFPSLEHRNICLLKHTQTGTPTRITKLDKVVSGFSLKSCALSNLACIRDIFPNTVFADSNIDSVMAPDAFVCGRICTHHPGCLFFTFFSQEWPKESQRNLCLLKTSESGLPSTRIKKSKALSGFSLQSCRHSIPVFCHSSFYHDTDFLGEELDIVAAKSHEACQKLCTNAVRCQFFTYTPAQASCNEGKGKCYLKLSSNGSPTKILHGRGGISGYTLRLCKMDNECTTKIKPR

Regarding Ecallantide, the “Activated clotting time (ACT)” value in the series with blood is “increase in activated clotting time”. Also, in series [1], the “Contact activated induced coagulation” value is on record as “delay contact activated induced coagulation”. In series [2], the Anaphylactic reactions result is “risks of anaphylactic reactions”.

Turning to `Cl.NCC1CCC(C(=O)N[C@@H](Cc2ccccc2)C(=O)Nc2ccc(CC(=O)O)cc2)CC1` (stereo partly drawn) [PKSI-527], the “Decrease in platelet count and fibrinogen level and increase in FDP level” value in series [3] was “significantly suppressed”.

Regarding `COCc1nn(Cc2ccc(Cn3ccccc3=O)cc2)cc1C(=O)NCc1c(F)ccc(OC)c1F` [N-[(2,6-difluoro-3-methoxyphenyl)methyl]-3-(methoxymethyl)-1-({4-[(2-oxopyridin-1-yl)methyl]phenyl}methyl)pyrazole-4-carboxamide], at 40 µM the inhibition on Human FXIa was 4%. Moreover, the IC50 at Human plasma kallikrein turned out to be 4.5 nM. Further, in series [4], the peak level (Cmax) was 2890 ng/mL and the Tmax was 1 h. Moreover, the IC50 against Human KLK1 was over 10000 nM.
